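In this assay, cells in 96-well plates receive the compound at five concentrations for 48 hours. Endpoints are linearly interpolated between the surrounding concentrations. The concentration for 50% growth inhibition is given as GI50.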 Calls of active or inactive are those of the source. Cut-off read from the data, not from the text of the source: active = GI50 up to about 1.1 µM and inactive = higher.
Columns and labels:
Experiment in all cases: NCI anticancer screen, dose series, 48 h
[1] = system: K562
[2] = system: M14
[3] = system: SK-MEL-28
[4] = system: A498
[5] = system: NCI-H23
[6] = system: OVCAR-3
[7] = system: ACHN
[8] = system: U-251
[9] = system: NCI-H522
[10] = system: CCRF-CEM
[11] = system: MDA-MB-231
[12] = system: MDA-N
[13] = system: HT-29
[14] = system: SF-268
[15] = system: CAKI-1
[16] = system: COLO 205
[17] = system: SR
[18] = system: SNB-75
[19] = system: NCI/ADR-RES

Structure (SMILES) | GI50 [1] | GI50 [2] | GI50 [3] | GI50 [4] | GI50 [5] | GI50 [6] | GI50 [7] | GI50 [8] | GI50 [9] | GI50 [10] | GI50 [11] | GI50 [12] | GI50 [13] | GI50 [14] | GI50 [15] | GI50 [16] | GI50 [17] | GI50 [18] | GI50 [19]
CCN(CC)CCC1CCCCN1CC(=O)N1c2cc(Cl)ccc2NC(=O)CC1C (stereo unspecified) | > 100 µM (inactive) | > 100 µM (inactive) | > 100 µM (inactive) | > 100 µM (inactive) | > 100 µM (inactive) | > 100 µM (inactive) | > 100 µM (inactive) | > 100 µM (inactive) | > 100 µM (inactive) | > 100 µM (inactive) | > 100 µM (inactive) | > 100 µM (inactive) | > 100 µM (inactive) | > 100 µM (inactive) | > 100 µM (inactive) | > 100 µM (inactive) |  |  | 
ClCCCC1COc2ccccc2O1 (stereo unspecified) | > 100 µM (inactive) | > 100 µM (inactive) | > 100 µM (inactive) |  | > 10 µM (inactive) | > 100 µM (inactive) | > 100 µM (inactive) | > 100 µM (inactive) | > 100 µM (inactive) | > 100 µM (inactive) |  | > 100 µM (inactive) | > 100 µM (inactive) | 96.6 µM (inactive) | > 100 µM (inactive) | > 100 µM (inactive) | > 100 µM (inactive) | > 100 µM (inactive) | > 100 µM (inactive)
C=C1C(=O)O[C@H]2[C@H]3O[C@@H](C[C@@H]12)[C@](C)(O)CC[C@@H]1O[C@@]1(C)CCC[C@H]3C | 23 µM (inactive) | 12 µM (inactive) | 32 µM (inactive) | 23.6 µM (inactive) | 16.4 µM (inactive) | 16.7 µM (inactive) | 15.5 µM (inactive) | 22.4 µM (inactive) | 18.1 µM (inactive) | 11.4 µM (inactive) | 25.1 µM (inactive) |  | 25.6 µM (inactive) | 15.6 µM (inactive) | 14.2 µM (inactive) | 16.4 µM (inactive) | 16.5 µM (inactive) | 18.5 µM (inactive) | 26.9 µM (inactive)
COC(=O)C(NC(=O)C12CCC(C)(C(=O)O1)C2(C)C)c1cc(C(C)(C)C)c(O)c(C(C)(C)C)c1 (stereo unspecified) | 64 µM (inactive) | > 100 µM (inactive) | > 100 µM (inactive) | > 100 µM (inactive) | > 100 µM (inactive) | > 100 µM (inactive) | > 100 µM (inactive) | 73.1 µM (inactive) | > 100 µM (inactive) | 39.9 µM (inactive) | > 100 µM (inactive) |  | 72.9 µM (inactive) | > 100 µM (inactive) | > 100 µM (inactive) | 49.4 µM (inactive) | 68.2 µM (inactive) | > 100 µM (inactive) | > 100 µM (inactive)
O=C(CSCC(=O)N/N=C\c1cc(Cl)cc(Cl)c1O)N/N=C\c1cc(Cl)cc(Cl)c1O | 2.37 µM (inactive) | 4.93 µM (inactive) | 5.21 µM (inactive) |  | 10.1 µM (inactive) | 1.69 µM (inactive) | 0.204 µM (active) | 0.515 µM (active) | 1.71 µM (inactive) | 0.294 µM (active) | 2.48 µM (inactive) |  | 10.5 µM (inactive) | 2.32 µM (inactive) | 3.48 µM (inactive) | 6.1 µM (inactive) | 1.77 µM (inactive) | 12.4 µM (inactive) | 2.96 µM (inactive)
CSc1[nH]nc(N)c1C(=O)Nc1ccc(C)cc1 | 69.5 µM (inactive) | 83.9 µM (inactive) | 48.8 µM (inactive) | 18.7 µM (inactive) | 61.1 µM (inactive) | 77.3 µM (inactive) | 55.2 µM (inactive) | 50.2 µM (inactive) | 26.7 µM (inactive) | 26.1 µM (inactive) | 63.2 µM (inactive) | 49.5 µM (inactive) | > 100 µM (inactive) | 47.5 µM (inactive) | 40.1 µM (inactive) | 55 µM (inactive) | 30.6 µM (inactive) |  | 
Cn1c2ccccc2c2nc3ccccc3c(Cl)c21 | > 100 µM (inactive) | > 100 µM (inactive) | > 100 µM (inactive) | > 100 µM (inactive) | 36.2 µM (inactive) | > 100 µM (inactive) |  | 55.8 µM (inactive) | > 100 µM (inactive) | > 100 µM (inactive) | > 100 µM (inactive) |  | > 100 µM (inactive) | > 100 µM (inactive) | > 100 µM (inactive) | > 100 µM (inactive) | > 100 µM (inactive) | 23.4 µM (inactive) | > 100 µM (inactive)
Nc1ncnc2c1ncn2-c1ccc([N+](=O)[O-])cn1 | > 10 µM (inactive) | > 100 µM (inactive) | > 100 µM (inactive) | > 100 µM (inactive) | > 100 µM (inactive) | > 100 µM (inactive) | > 100 µM (inactive) | > 100 µM (inactive) |  | > 100 µM (inactive) | > 100 µM (inactive) | > 100 µM (inactive) | > 100 µM (inactive) | > 100 µM (inactive) | > 100 µM (inactive) | > 100 µM (inactive) |  | 41.4 µM (inactive) | > 100 µM (inactive)
[C-]#[N+]C1(C(=O)OCC)CC1 | > 100 µM (inactive) | > 100 µM (inactive) | > 100 µM (inactive) | > 100 µM (inactive) | > 100 µM (inactive) | > 100 µM (inactive) | > 100 µM (inactive) | > 100 µM (inactive) | > 100 µM (inactive) | > 100 µM (inactive) |  | > 100 µM (inactive) | > 100 µM (inactive) | > 100 µM (inactive) |  |  | > 100 µM (inactive) | > 100 µM (inactive) | > 100 µM (inactive)
Cc1oncc1/N=C1\C=C(O)C(=O)c2ccccc21 | 6.14 µM (inactive) | 6.1 µM (inactive) | 15.4 µM (inactive) | 13.2 µM (inactive) | 3.79 µM (inactive) | 1.9 µM (inactive) | 4.82 µM (inactive) | 5.37 µM (inactive) | 5.41 µM (inactive) | 3.38 µM (inactive) | 8.47 µM (inactive) |  | 3.65 µM (inactive) | 10.5 µM (inactive) | 9.18 µM (inactive) | 17 µM (inactive) | 4.88 µM (inactive) | 13.1 µM (inactive) | 3.85 µM (inactive)
CC(C)(C)NC1C2CCC(C)(C1O)C2(C)C (stereo unspecified) | > 100 µM (inactive) | > 100 µM (inactive) | > 100 µM (inactive) | 2.35 µM (inactive) | > 100 µM (inactive) | > 100 µM (inactive) | 8.63 µM (inactive) | > 100 µM (inactive) |  |  | > 100 µM (inactive) |  | > 100 µM (inactive) | > 100 µM (inactive) | > 100 µM (inactive) | > 100 µM (inactive) | > 100 µM (inactive) | 0.021 µM (active) | > 100 µM (inactive)
NC(=S)N1N=C(c2ccccc2O)CC1c1ccccc1 (stereo unspecified) | 3.85 µM (inactive) | 11.3 µM (inactive) | 18.5 µM (inactive) | 11.9 µM (inactive) | 18.5 µM (inactive) | 10.5 µM (inactive) | 23.3 µM (inactive) | 16.8 µM (inactive) | 3.99 µM (inactive) | 7.94 µM (inactive) |  | 2.83 µM (inactive) | 11 µM (inactive) | 20.8 µM (inactive) | 27.9 µM (inactive) | 8.97 µM (inactive) |  | 16.9 µM (inactive) | 6.35 µM (inactive)
C=C1C(=O)O[C@H]2[C@@H](O)[C@H](C)CCC[C@]3(C)O[C@H]3CC[C@@]3(C)O[C@@H]3C[C@@H]12 | 1.14 µM (inactive) | 6.11 µM (inactive) | 2.83 µM (inactive) | 7.33 µM (inactive) | 6.49 µM (inactive) | 4.31 µM (inactive) |  | 8.57 µM (inactive) | 1.12 µM (inactive) | 1.58 µM (inactive) | 4.08 µM (inactive) |  | 5.66 µM (inactive) | 6.07 µM (inactive) | 6.22 µM (inactive) | 3.01 µM (inactive) | 1.43 µM (inactive) | 6.9 µM (inactive) | 7.73 µM (inactive)
CCCCCCCCCCCCCCCCCCNc1ccn(C2OC(CO)C(OP(=O)(O)OCC3CCC(n4ccc(N)nc4=O)O3)C2O)c(=O)n1 (stereo unspecified) |  | 42.3 µM (inactive) | 61.5 µM (inactive) |  | > 100 µM (inactive) | > 100 µM (inactive) | > 100 µM (inactive) | > 100 µM (inactive) | 28.6 µM (inactive) | 16.7 µM (inactive) | > 100 µM (inactive) | > 100 µM (inactive) | 42.5 µM (inactive) | 27.9 µM (inactive) | > 100 µM (inactive) | 45.9 µM (inactive) |  | 62.2 µM (inactive) | > 100 µM (inactive)
O=C1C=C/C(=N\N=C(c2ccccc2)c2ccccc2)O1 | > 10 µM (inactive) | > 10 µM (inactive) | > 10 µM (inactive) |  | > 10 µM (inactive) |  |  |  |  | 8.49 µM (inactive) | > 10 µM (inactive) | > 10 µM (inactive) | > 10 µM (inactive) | > 10 µM (inactive) | > 10 µM (inactive) | > 10 µM (inactive) | > 10 µM (inactive) | > 10 µM (inactive) | 
COc1cc(CNC2=NCCC2)cc(OC)c1OC | 65.5 µM (inactive) | > 100 µM (inactive) | > 100 µM (inactive) |  | > 100 µM (inactive) | > 100 µM (inactive) | > 100 µM (inactive) | 53.3 µM (inactive) | > 100 µM (inactive) | > 100 µM (inactive) |  | 34.5 µM (inactive) | > 100 µM (inactive) | > 100 µM (inactive) | > 100 µM (inactive) | > 100 µM (inactive) |  | > 100 µM (inactive) | > 100 µM (inactive)
